Results: patent publication US9629847B2, “Compositions and methods for treating symptoms of inflammatory related conditions using a combination of an antihistamine and a stimulant” (priority 2011, dated 2017)

Test system: TPA induction of neutrophil MPO activity
Assay: Systemic effect: MPO activity in contralateral vehicle-treated ear after topical application (TPA model)
Excerpt: These include dexamethasone, a steroid, and indomethasone, a non-steroid anti-inflammatory drug, which targets cycloxygenases.

Row | effect on MPO activity of contralateral vehicle-treated ear (systemic effect) (mouse, in vivo) | SMILES | effect on MPO activity of contralateral vehicle-treated ear (systemic effect) (topical, increasing concentration)
1 | – | COc1ccc2c(c1)c(CC(=O)O)c(C)n2C(=O)c1ccc(Cl)cc1 [indomethasone] | increasing inhibition of MPO activity
2 | increasing inhibition of MPO activity | C[C@@H]1C[C@H]2[C@@H]3CCC4=CC(=O)C=C[C@]4(C)[C@@]3(F)[C@@H](O)C[C@]2(C)[C@@]1(O)C(=O)CO [dexamethasone] | –
